{"source": "PubChem BioAssay AID1918948", "about": "(Molecular Pharmacology Branch, DTP, NCI, 2023)", "system": "K-562 leukemia growth, % test/control", "test": "Anticancer human tumor K-562 cell line growth inhibition;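 on all read-outs here: spheroids exposed to compounds for 7 days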;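 on viability, T/C: 100% = DMSO vehicle wells and lower values mean fewer viable cells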", "conditions": "spheroids with HUVEC and MSC; for viability, T/C: stronger effect = lower value", "from_the_text": "Multicellular complex tumor spheroid response to LSD1 Inhibitor Iadademstat in combination with a variety of drugs and investigational agents in selected tumor cell lines\nThe current study was undertaken to assess response to LSD1 inhibitors in combination with standard-of-care drugs and investigational agents in solid tumor complex spheroid models as well as in the K-562 leukemia. Complex spheroids include a stromal component modeled by human endothelial cells (HUVEC) and fibroblasts modeled by human mesenchymal stem cells (MSCs). The concentration ranges selected for each drug and investigational agent were based upon clinically achievable concentrations if the clinical Cmax of the agent was known.\nCompounds. The drugs and investigational agents used in this study are listed on Table 1. All of the agents used, including staurosporine (NSC755774) and gemcitabine (NSC613327), were obtained from the Developmental Therapeutics Program, NCI. FDA-approved anticancer drugs are available from the NCI at http://dtp.nci.nih.gov/branches/dscb/oncology_drugset_explanation.html. Drugs and investigational agents were >95% pure by proton nuclear magnetic resonance (NMR) and liquid chromatography/mass spectrometry (LC/MS). Stock solutions were prepared at 400x in DMSO, stored at -70 degrees C, and diluted in fresh medium prior to their use. The final concentration of DMSO in cell culture wells never exceeded 0.25% (v/v). The FDA-approved anticancer drug set is available from the Developmental Therapeutics Program at https://dtp.cancer.gov/organization/dscb/obtaining/available_plates.htm. All drugs and investigational agents were tested over a range starting from a high concentration at or near the clinical Cmax and decreasing in half-log increments. If the clinical Cmax for an agent had not been determined, the highest concentration tested was 10 microM.\nCell Lines. The patient-derived cancer cell (PDC) lines: 292921-168-R-J2-PDC, K24384-001-R-PDC, and 521955-158-R2-J5-PDC pancreatic carcinomas, 556581-035-R-J1 ovarian carcinoma, 324938-238-R-J1-PDC, 855422-203-R-J1-PDC and 883617-216-R-J1-PDC urothelial bladder carcinomas, 743489-274-T-PDC renal cell carcinoma, 138582-R-J1 Merkel cell tumor, K60290-347-R-J1 and K57222-313-R-J1-PDC glioblastomas, 653999-131-R-J2-PDC, LG0703-F948-PDC, and 349418-098-R-PDC non-small cell lung carcinomas, 885512-296-R-J2-PDC, 171881-019-R-J1-PDC breast carcinomas and 186277-243-T-J2-PDC and 233499-124-R-J2-PDC colon carcinomas were obtained from the NCI Patient-Derived Models Repository (PDMR, https://pdmr.cancer.gov). The established cell lines NCI/ADR-RES (RRID:CVCL_14520 and OVCAR-5 (RRID:CVCL_1628) ovarian carcinomas, 786-O (RRID:CVCL_1051) and A498 (RRID:CVCL_A498) renal cell carcinoma, NCI-H211 (ATCC, cat. CRL-5824; RRID:CVCL_1529), NCI-H196 (ATCC, cat. CRL-5823, RRID:CVCL_1509), SW 1271 (ATCC, cat. CRL-2177, RRID:CVCL_1716) and NCI-H1876 (ATCC, cat. CRL-5902, RRID:CVCL_1503) small cell lung carcinomas, MDA-MB-231 (RRID:CVCL_0062) and MDA-MB-468 (RRID:CVCL_0419)breast carcinomas (10-12). Pooled donor human umbilical vein endothelial cells (HUVEC, Lonza, cat. CC-2519) and human mesenchymal stem cells (hMSC, Lonza, cat. PT-2501) were purchased from Lonza (Walkersville, MD).\nCell Culture. All cells were maintained in an incubator at 37 degrees C and 5% CO2 with 95% humidity. The PDC lines were cultured according to standard operating procedures established by the NCI PDMR (https://pdmr.cancer.gov). Briefly all PDCs were thawed and cultured in Matrigel-coated flasks prepared with a working solution of 1X Ham's F-12 nutrient mix, without supplementation (Invitrogen, Waltham, MA, cat. 11765054), 100 U/mL penicillin-streptomycin (Invitrogen, cat. 15140122), and 2.5% Matrigel (Corning Inc., Corning, NY, cat. 354248) for the first three passages. […]", "note": "“And” between values parts separate entries of the source, which are not always exact repeats. Equal entries are not always repeated.", "data": [{"smiles": "Nc1ccn(C2OC(CO)C(O)C2(F)F)c(=O)n1", "note": "(stereo unspecified)", "values": [{"measurement": "viability, T/C", "setting": "compound 0.000949 µM", "value": "45.4% and 98.6%"}, {"measurement": "viability, T/C", "setting": "compound 0.003 µM", "value": "18.2% and 91.7%"}, {"measurement": "viability, T/C", "setting": "compound 0.00949 µM", "value": "14.6% and 51.5%"}, {"measurement": "viability, T/C", "setting": "compound 0.03 µM", "value": "13.6% and 21%"}, {"measurement": "viability, T/C", "setting": "compound 0.0949 µM", "value": "15.1% and 19.3%"}, {"measurement": "viability, T/C", "setting": "compound 0.3 µM", "value": "13.9% and 16.9%"}]}, {"smiles": "O=C(c1cc(Cc2n[nH]c(=O)c3ccccc23)ccc1F)N1CCN(C(=O)C2CC2)CC1", "values": [{"measurement": "viability, T/C", "setting": "compound 0.0316 µM", "value": "97% and 101%"}, {"measurement": "viability, T/C", "setting": "compound 0.1 µM", "value": "99.8% and 101%"}, {"measurement": "viability, T/C", "setting": "compound 0.316 µM", "value": "99% and 103%"}, {"measurement": "viability, T/C", "setting": "compound 1 µM", "value": "97.1% and 101%"}, {"measurement": "viability, T/C", "setting": "compound 3.16 µM", "value": "88.5% and 94.2%"}, {"measurement": "viability, T/C", "setting": "compound 10 µM", "value": "48.1% and 50.1%"}, {"measurement": "IC50", "setting": "curve of compound", "value": "9470 nM and > 10000 nM"}]}, {"smiles": "COc1cc(Nc2ncc3c(n2)-c2ccc(Cl)cc2C(c2c(F)cccc2OC)=NC3)ccc1C(=O)O", "values": [{"measurement": "viability, T/C", "setting": "compound 0.00316 µM", "value": "83.3% and 43.7%"}, {"measurement": "viability, T/C", "setting": "compound 0.01 µM", "value": "41.7% and 44.3%"}, {"measurement": "viability, T/C", "setting": "compound 0.0316 µM", "value": "40% and 40.6%"}, {"measurement": "viability, T/C", "setting": "compound 0.1 µM", "value": "39.9% and 40.8%"}, {"measurement": "viability, T/C", "setting": "compound 0.316 µM", "value": "37.6% and 11.2%"}, {"measurement": "IC50", "setting": "curve of compound", "value": "8 nM and < 3.16 nM"}]}, {"smiles": "Nc1ccccc1NC(=O)c1ccc(CNC(=O)OCc2cccnc2)cc1", "note": "+ NC1CCC(NC2CC2c2ccccc2)CC1", "values": [{"measurement": "IC50", "setting": "curve of first compound, second compound 0.1 µM", "value": 274, "unit": "nM"}, {"measurement": "IC50", "setting": "curve of first compound, second compound 0.316 µM", "value": 325, "unit": "nM"}, {"measurement": "IC50", "setting": "curve of first compound, second compound 1 µM", "value": 280, "unit": "nM"}, {"measurement": "IC50", "setting": "curve of first compound, second compound 3.16 µM", "value": 225, "unit": "nM"}, {"measurement": "IC50", "setting": "curve of first compound, second compound 10 µM", "value": 75.5, "unit": "nM"}, {"measurement": "viability, T/C", "setting": "second compound 0.1 µM, first compound 0.00949 µM", "value": 106, "unit": "%"}, {"measurement": "viability, T/C", "setting": "second compound 0.1 µM, first compound 0.03 µM", "value": 106, "unit": "%"}, {"measurement": "viability, T/C", "setting": "second compound 0.1 µM, first compound 0.0949 µM", "value": 103, "unit": "%"}, {"measurement": "viability, T/C", "setting": "second compound 0.1 µM, first compound 0.3 µM", "value": 45.5, "unit": "%"}, {"measurement": "viability, T/C", "setting": "second compound 0.1 µM, first compound 0.949 µM", "value": 3.36, "unit": "%"}, {"measurement": "viability, T/C", "setting": "second compound 0.1 µM, first compound 3 µM", "value": 0.18, "unit": "%"}, {"measurement": "viability, T/C", "setting": "second compound 0.316 µM, first compound 0.00949 µM", "value": 107, "unit": "%"}, {"measurement": "viability, T/C", "setting": "second compound 0.316 µM, first compound 0.03 µM", "value": 105, "unit": "%"}, {"measurement": "viability, T/C", "setting": "second compound 0.316 µM, first compound 0.0949 µM", "value": 103, "unit": "%"}, {"measurement": "viability, T/C", "setting": "second compound 0.316 µM, first compound 0.3 µM", "value": 53.5, "unit": "%"}, {"measurement": "viability, T/C", "setting": "second compound 0.316 µM, first compound 0.949 µM", "value": 3.47, "unit": "%"}, {"measurement": "viability, T/C", "setting": "second compound 0.316 µM, first compound 3 µM", "value": 0.16, "unit": "%"}, {"measurement": "viability, T/C", "setting": "second compound 1 µM, first compound 0.00949 µM", "value": 106, "unit": "%"}, {"measurement": "viability, T/C", "setting": "second compound 1 µM, first compound 0.03 µM", "value": 107, "unit": "%"}, {"measurement": "viability, T/C", "setting": "second compound 1 µM, first compound 0.0949 µM", "value": 100, "unit": "%"}, {"measurement": "viability, T/C", "setting": "second compound 1 µM, first compound 0.3 µM", "value": 46.9, "unit": "%"}, {"measurement": "viability, T/C", "setting": "second compound 1 µM, first compound 0.949 µM", "value": 3.81, "unit": "%"}, {"measurement": "viability, T/C", "setting": "second compound 1 µM, first compound 3 µM", "value": 0.17, "unit": "%"}, {"measurement": "viability, T/C", "setting": "second compound 3.16 µM, first compound 0.00949 µM", "value": 105, "unit": "%"}, {"measurement": "viability, T/C", "setting": "second compound 3.16 µM, first compound 0.03 µM", "value": 107, "unit": "%"}, {"measurement": "viability, T/C", "setting": "second compound 3.16 µM, first compound 0.0949 µM", "value": 93.2, "unit": "%"}, {"measurement": "viability, T/C", "setting": "second compound 3.16 µM, first compound 0.3 µM", "value": 35.6, "unit": "%"}, {"measurement": "viability, T/C", "setting": "second compound 3.16 µM, first compound 0.949 µM", "value": 4.43, "unit": "%"}, {"measurement": "viability, T/C", "setting": "second compound 3.16 µM, first compound 3 µM", "value": 1.18, "unit": "%"}, {"measurement": "viability, T/C", "setting": "second compound 10 µM, first compound 0.00949 µM", "value": 92.5, "unit": "%"}, {"measurement": "viability, T/C", "setting": "second compound 10 µM, first compound 0.03 µM", "value": 83.8, "unit": "%"}, {"measurement": "viability, T/C", "setting": "second compound 10 µM, first compound 0.0949 µM", "value": 39.9, "unit": "%"}, {"measurement": "viability, T/C", "setting": "second compound 10 µM, first compound 0.3 µM", "value": 14.1, "unit": "%"}, {"measurement": "viability, T/C", "setting": "second compound 10 µM, first compound 0.949 µM", "value": 2.97, "unit": "%"}, {"measurement": "viability, T/C", "setting": "second compound 10 µM, first compound 3 µM", "value": 0.24, "unit": "%"}]}, {"smiles": "Nc1ncn(C2CC(O)C(CO)S2)c(=O)n1", "note": "(stereo unspecified)", "values": [{"measurement": "viability, T/C", "setting": "compound 0.000949 µM", "value": "111% and 100%"}, {"measurement": "viability, T/C", "setting": "compound 0.003 µM", "value": "109% and 106%"}, {"measurement": "viability, T/C", "setting": "compound 0.00949 µM", "value": "109% and 105%"}, {"measurement": "viability, T/C", "setting": "compound 0.03 µM", "value": "94.4% and 87.5%"}, {"measurement": "viability, T/C", "setting": "compound 0.0949 µM", "value": "67.2% and 53.8%"}, {"measurement": "viability, T/C", "setting": "compound 0.3 µM", "value": "37.7% and 19.5%"}, {"measurement": "IC50", "setting": "curve of compound", "value": "185 nM and 106 nM"}]}]}
